Results taken from patent EP4778933A1 (Chengdu Hyperway Pharmaceuticals Co., Ltd., priority 2023, dated 2025).
Like-named read-outs stand apart in the source and are kept apart here.

Test system: KRAS G12D-mediated ERK phosphorylation
Assay: Inhibition of KRAS G12D-mediated ERK phosphorylation in AGS cells (in-cell pERK/GAPDH immunofluorescence)
Assay type: cell-based
Procedure: Day 1: AGS cells, SW480 cells, NCI H358 cells, HCT116 cells, and KP2 cells were seeded into 384-well cell culture plates and cultured overnight in a 37°C, 5% CO2 incubator.
Day 2: The compounds were added to the plates using Echo550 and incubated for 3 h in a 37°C, 5% CO2 incubator. Then, cells fixed with paraformaldehyde, permeated with methanol and blocked with a blocking solution were added. Finally, a mixed solution of primary antibodies (rabbit anti pERK, mouse anti GAPDH) was added, and the mixture was incubated overnight at 4°C.
Day 3: The mixed solution of primary antibodies was discarded, and a mixed solution of secondary antibodies (goat anti rabbit 800 CW, goat anti mouse 680 RD) was added. The resulting mixture was incubated at room temperature in the dark. Finally, the cell culture plate was washed with PBST, and then inverted for 1 minute of centrifugation. The fluorescence signal values were read with Odyssey CLx.
ERK phosphorylation was calculated according to the following formula: [formula] • Negative control: DMSO • Positive control: 10 µM Reference • IC50 value was fitted and calculated by XLFit 5.0 using the parametric formula. • Y = Bottom+(Top-Bottom)/(1+10^((LogIC50-X)*HillSlope)) • X: log value of compound concentration. • Y: average value of relative expression of p-ERK between replicate wells.

[1] = Homo sapiens, AGS, 3 h, read-out: Inhibitory activity on ERK phosphorylation (IC50) AGS-G12D, AGS cells, 3 h incubation
[2] = AGS cells, 3 h incubation, read-out: Inhibitory activity on ERK phosphorylation (IC50) AGS-G12D
[3] = Homo sapiens, AGS, 3 h, AGS cells, 3 h incubation, read-out: Inhibitory activity on ERK phosphorylation (IC50) AGS-G12D

Row | SMILES | IC50 [2] [µM] | IC50 [3] [µM] | other results
1 | CC1(O)COCCN(c2nc(OCC34CCCN3C(c3cc(F)c(F)c(F)c3)CC4)nc3c(F)c(-c4cccc5sc(N)c(C#N)c45)c(P(C)(C)=O)cc23)C1 (single isomer, unassigned) [Example 33, 2-amino-4-{6-[dimethyl(oxo)-15-methylphosphino]-8-fluoro-4-(6-hydroxy-6-methyl-1,4-oxazepan-4-yl)-2-({[3-(3,4,5-trifluorophenyl)-2,3,5,6,7,7a-hexahydro-1H-pyrrolizin-7a-yl]methyl}oxy)quinazolin-7-yl}benzo[b]thiophene-3-carbonitrile] | – | – | IC50 [1]: 0.196 µM
2 | N#Cc1c(N)sc2c(F)ccc(-c3c(Cl)cc4c(N5CC6COCC6C5)nc(OCC56CCCN5C(c5cc(F)c(F)c(F)c5)CC6)nc4c3F)c12 (racemic) [Example 8, 4-[4-(3,3a,4,5,6,6a-hexahydro-1H-furano[4,3-c]pyrrolo-5-yl)-6-chloro-8-fluoro-2-({[3-(3,4,5-trifluorophenyl)-2,3,5,6,7,7a-hexahydro-1H-pyrrolizin-7a-yl]methyl}oxy)quinazolin-7-yl]-2-amino-7-fluorobenzo[b]thiophene-3-carbonitrile] | – | – | IC50 [1]: > 1 µM
3 | CC1(O)COCCN(c2nc(OCC34CCCN3C(c3cc(F)c(F)c(F)c3)CC4)nc3c(F)c(-c4cccc5sc(N)c(C#N)c45)c(Cl)cc23)C1 (single isomer, unassigned) [Example 20, 2-amino-4-[6-chloro-8-fluoro-4-(6-hydroxy-6-methyl-1,4-oxazepan-4-yl)-2-({[3-(3,4,5-trifluorophenyl)-2,3,5,6,7,7a-hexahydro-1H-pyrrolizin-7a-yl]methyl}oxy)quinazolin-7-yl]benzo[b]thiophene-3-carbonitrile] | > 1 | – | –
4 | N#Cc1c(N)sc2c(F)ccc(-c3c(Cl)cc4c(N5CC6C[C@@H](C5)c5cccc(=O)n5C6)nc(OCC56CCCN5C(c5cc(F)c(F)c(F)c5)CC6)nc4c3F)c12 (mixture of isomers) [Example 7, 2-amino-4-{6-chloro-8-fluoro-4-[(1S)-6-oxo-7,11-diazatricyclo[7.3.1.02,7]trideca-2(3),4-dien-11-yl]-2-({[3-(3,4,5-trifluorophenyl)-2,3,5,6,7,7a-hexahydro-1H-pyrrolizin-7a-yl]methyl}oxy)quinazolin-7-yl}-7-fluorobenzo[b]thiophene-3-carbonitrile] | – | – | IC50 (Homo sapiens, AGS cells, 3 h incubation, read-out: Inhibitory activity on ERK phosphorylation (IC50) AGS-G12D): 0.738 µM
5 | N#Cc1c(N)sc2c(F)ccc(-c3c(Cl)cc4c(N5CCCC(O)(C(F)(F)F)CC5)nc(OCC56CCCC5C(c5cc(F)c(F)c(F)c5)CC6)nc4c3F)c12 (racemic) [Example 5, 2-amino-4-{6-chloro-8-fluoro-4-[4-hydroxy-4-(trifluoromethyl)azepan-1-yl]-2-({[1-(3,4,5-trifluorophenyl)octahydrocyclopenta[1,2-a][5]annulen-3a-yl]methyl}oxy)quinazolin-7-yl}-7-fluorobenzo[b]thiop hene-3-carbonitrile] | – | 0.313 | –
6 | N#Cc1c(N)sc2cccc(-c3c(Cl)cc4c(N5CCNOCC5)nc(OCC56CCCN5C(c5cc(F)c(F)c(F)c5)CC6)nc4c3F)c12 (single isomer, unassigned) [Example 34, 2-amino-4-[6-chloro-8-fluoro-4-(1,2,5-oxadiazepan-5-yl)-2-({[3-(3,4,5-trifluorophenyl)-2,3,5,6,7,7a-hexahydro-1H-pyrrolizin-7a-yl]methyl}oxy)quinazolin-7-yl]benzo[b]thiophene-3-carbonitrile] | – | 0.067 | –
7 | CC1(O)COCCN(c2nc(OCC34CCCN3C(c3cc(F)c(F)c(F)c3)CC4)nc3c(F)c(-c4cccc5sc(N)c(C#N)c45)c(Br)cc23)C1 (single isomer, unassigned) [Example 27, 2-amino-4-[6-bromo-8-fluoro-4-(6-hydroxy-6-methyl-1,4-oxazepan-4-yl)-2-({[3-(3,4,5-trifluoropheny 1)-2,3,5,6,7,7a-hexahydro-1H-pyrrolizin-7a-yl]methyl}oxy)quinazolin-7-yl]benzo[b]thiophene-3-carb onitrile] | – | – | IC50 (AGS cells, 3 h incubation): 0.355 µM
8 | CC1(O)COCCN(c2nc(OCC34CCCN3C(c3cc(F)c(F)c(F)c3)CC4)nc3c(F)c(-c4cccc5sc(N)c(C#N)c45)c(Br)cc23)C1 (single isomer, unassigned) [Example 24, 2-amino-4-[6-bromo-8-fluoro-4-(6-hydroxy-6-methyl-1,4-oxazepan-4-yl)-2-({[3-(3,4,5-trifluoropheny 1)-2,3,5,6,7,7a-hexahydro-1H-pyrrolizin-7a-yl]methyl}oxy)quinazolin-7-yl]benzo[b]thiophene-3-carb onitrile] | – | – | IC50 (AGS cells, 3 h incubation): 0.106 µM
9 | CC1(O)COCCN(c2nc(OCC34CCCN3C(c3cc(F)c(F)c(F)c3)CC4)nc3c(F)c(-c4cccc5sc(N)c(C#N)c45)c(I)cc23)C1 (single isomer, unassigned) [Example 32, 2-amino-4-[6-iodo-8-fluoro-4-(6-hydroxy-6-methyl-1,4-oxazepan-4-yl)-2-({[3-(3,4,5-trifluorophenyl)-2,3,5,6,7,7a-hexahydro-1H-pyrrolizin-7a-yl]methyl}oxy)quinazolin-7-yl]benzo[b]thiophene-3-carbonitrile] | 0.024 | – | –

The next lines start with results.

Row | IC50 [2] [µM] | IC50 [3] [µM] | SMILES | other results
10 | – | > 1 | COC1CCN(c2nc(OCC34CCCN3C(c3cc(F)c(F)c(F)c3)CC4)nc3c(F)c(-c4ccc(F)c5sc(N)c(C#N)c45)c(N)cc23)C1 (racemic) [Example 15, 2-amino-4-[6-amino-8-fluoro-4-(3-methoxytetrahydro-1H-pyrrol-1-yl)-2-({[3-(3,4,5-trifluor ophenyl)-2,3,5,6,7,7a-hexahydro-1H-pyrrolizin-7a-yl]methyl}oxy)quinazolin-7-yl]-7-fluorobenzo[b]t hiophene-3-carbonitrile] | –
11 | – | > 1 | N#Cc1c(N)sc2c(F)ccc(-c3c(Cl)cc4c(N5CCOCC(O)(CO)C5)nc(OCC56CCCN5C(c5cc(F)c(F)c(F)c5)CC6)nc4c3F)c12 (racemic) [Example 2, 2-amino-4-{6-chloro-8-fluoro-4-[6-hydroxy-6-(hydroxymethyl)-1,4-oxazepan-4-yl]-2-({[3-(3,4,5-trifluorophenyl)-2,3,5,6,7,7a-hexahydro-1H-pyrrolizin-7a-yl]methyl}oxy)quinazolin-7-yl}-7-flu orobenzo[b]thiophene-3-carbonitrile] | –
12 | 0.033 | – | CC1(O)COCCN(c2nc(OCC34CCCN3C(c3cc(F)c(F)c(F)c3)CC4)nc3c(F)c(-c4cccc5sc(N)c(C#N)c45)c(I)cc23)C1 (single isomer, unassigned) [Example 29, 2-amino-4-[6-iodo-8-fluoro-4-(6-hydroxy-6-methyl-1,4-oxazepan-4-yl)-2-({[3-(3,4,5-trifluorophenyl)-2,3,5,6,7,7a-hexahydro-1H-pyrrolizin-7a-yl]methyl}oxy)quinazolin-7-yl]benzo[b]thiophene-3-carbonitrile] | –
13 | > 1 | – | CC1(O)COCCN(c2nc(OCC34CCCN3C(c3cc(F)c(F)c(F)c3)CC4)nc3c(F)c(-c4cccc5sc(N)c(C#N)c45)c(Cl)cc23)C1 (single isomer, unassigned) [Example 19, 2-amino-4-[6-chloro-8-fluoro-4-(6-hydroxy-6-methyl-1,4-oxazepan-4-yl)-2-({[3-(3,4,5-trifluorophenyl)-2,3,5,6,7,7a-hexahydro-1H-pyrrolizin-7a-yl]methyl}oxy)quinazolin-7-yl]benzo[b]thiophene-3-carbonitrile] | –
